Tests used:
B. subtilis 168 [1] = experiment: fitness (endpoint OD595 vs no drug) (fraction); higher = more growth
In short: (§1)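 Fitness expresses the optical density reached at the stationary-phase transition as a fraction of the robust mean of no-drug control wells. It is capped at 1. Measurements were OD595 every 30 min for 14 h at 37 °C after inoculation of 384-well plates at OD595 0.01 (30 µl, or 55 µl for S. pneumoniae), minus the first reading.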

S. pneumoniae D39V [2] = experiment: as above
In short: as §1

B. subtilis 168 [3] = experiment: Bliss interaction score (quartile over a dose matrix) (fitness difference); higher = more antagonism (negative = synergy)
In short: (§2)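 Growth was read as OD595 when cultures entered stationary phase, and each value was divided by the plate's robust no-drug mean and capped at 1. This normalised ratio is the fitness value, and fitness for each single drug came from the combination data. The Bliss score subtracts the expected fitness, taken as the product, from the observed fitness and is given as quartiles across technical, biological and donor/recipient replicates.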

S. aureus DSM 20231 = experiment: as above
In short: as §2

S. aureus Newman [4] = experiment: as above
In short: as §2

S. pneumoniae D39V [5] = experiment: as above
In short: as §2

S. aureus Newman [6] = experiment: fitness (endpoint OD595 vs no drug) (fraction); higher = more growth; conditions: one replicate
In short: as §1
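Throughout, for Bliss interaction score (quartile over a dose matrix): first quartile when negative (synergy) and third quartile when positive (antagonism).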
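Throughout, for fitness (endpoint OD595 vs no drug): OD595 on entry to stationary phase over no-drug wells; at most 1.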

C[C@H]1c2cccc(O)c2C(=O)C2=C(O)[C@]3(O)C(=O)C(C(N)=O)=C(O)[C@@H](N(C)C)[C@@H]3[C@@H](O)[C@@H]21 [Doxycycline] + COc1ccc(C[C@H](N)C(=O)N[C@H]2[C@@H](O)[C@H](n3cnc4c(N(C)C)ncnc43)O[C@@H]2CO)cc1 [Puromycin]
Conditions | fitness
B. subtilis 168 [1], first compound 0.02 µg/mL, partner 0.39 µg/mL | 0.861
B. subtilis 168 [1], first compound 0.02 µg/mL, partner 0.78 µg/mL | 0.858
B. subtilis 168 [1], first compound 0.02 µg/mL, partner 1.56 µg/mL | 0.877
B. subtilis 168 [1], first compound 0.04 µg/mL, partner 0.39 µg/mL | 0.748
B. subtilis 168 [1], first compound 0.04 µg/mL, partner 0.78 µg/mL | 0.751
B. subtilis 168 [1], first compound 0.04 µg/mL, partner 1.56 µg/mL | 0.761
B. subtilis 168 [1], first compound 0.08 µg/mL, partner 0.39 µg/mL | 0.405
S. pneumoniae D39V [2], first compound 0.0155 µg/mL, partner 1 µg/mL | ≥ 1
S. pneumoniae D39V [2], first compound 0.0155 µg/mL, partner 2 µg/mL | 0.97
S. pneumoniae D39V [2], first compound 0.0155 µg/mL, partner 4 µg/mL | 0.834
S. pneumoniae D39V [2], first compound 0.031 µg/mL, partner 1 µg/mL | 0.857
S. pneumoniae D39V [2], first compound 0.031 µg/mL, partner 2 µg/mL | 0.836
S. pneumoniae D39V [2], first compound 0.031 µg/mL, partner 4 µg/mL | 0.73
S. pneumoniae D39V [2], first compound 0.062 µg/mL, partner 1 µg/mL | 0.847
S. pneumoniae D39V [2], first compound 0.062 µg/mL, partner 2 µg/mL | 0.786
S. pneumoniae D39V [2], first compound 0.062 µg/mL, partner 4 µg/mL | 0.637

fitness, S. pneumoniae D39V [2], one replicate
Conditions | partner 1 µg/mL | partner 2 µg/mL | partner 4 µg/mL
first compound 0.003875 µg/mL | ≥ 1 | 0.98 | 0.847
first compound 0.00775 µg/mL | ≥ 1 | 0.976 | 0.86

Conditions | Bliss interaction score
B. subtilis 168 [3] | -0.0496
S. aureus DSM 20231 | -0.0866
S. aureus Newman [4] | -0.0507
S. pneumoniae D39V [5] | 0.0767

C[C@H]1c2cccc(O)c2C(=O)C2=C(O)[C@]3(O)C(=O)C(C(N)=O)=C(O)[C@@H](N(C)C)[C@@H]3[C@@H](O)[C@@H]21 [Doxycycline] + O=C(O[C@@H]1Cc2c(O)cc(O)cc2O[C@@H]1c1cc(O)c(O)c(O)c1)c1cc(O)c(O)c(O)c1 [EGCG]
Conditions | fitness
B. subtilis 168 [1], first compound 0.02 µg/mL, partner 6.25 µg/mL | 0.901
B. subtilis 168 [1], first compound 0.04 µg/mL, partner 6.25 µg/mL | 0.767
B. subtilis 168 [1], first compound 0.08 µg/mL, partner 6.25 µg/mL | 0.53
B. subtilis 168 [1], first compound 0.08 µg/mL, partner 12.5 µg/mL | 0.315
B. subtilis 168 [1], first compound 0.08 µg/mL, partner 25 µg/mL | 0.0902
S. pneumoniae D39V [2], first compound 0.0155 µg/mL, partner 12.5 µg/mL | 0.85
S. pneumoniae D39V [2], first compound 0.0155 µg/mL, partner 25 µg/mL | 0.864
S. pneumoniae D39V [2], first compound 0.0155 µg/mL, partner 50 µg/mL | 0.881
S. pneumoniae D39V [2], first compound 0.031 µg/mL, partner 25 µg/mL | 0.755

fitness, S. pneumoniae D39V [2], one replicate
Conditions | partner 12.5 µg/mL | partner 25 µg/mL | partner 50 µg/mL
first compound 0.003875 µg/mL | 0.954 | 0.985 | 0.995
first compound 0.00775 µg/mL | 0.919 | 0.966 | 0.964

Conditions | Bliss interaction score
B. subtilis 168 [3] | 0.147
S. aureus DSM 20231 | 0.0387
S. aureus Newman [4] | 0.088
S. pneumoniae D39V [5] | -0.0707

Cc1ncc([N+](=O)[O-])n1CCO [Metronidazole] + C/C(=C\C(=O)OCCCCCCCCC(=O)O)C[C@@H]1OC[C@H](C[C@@H]2O[C@H]2[C@@H](C)[C@H](C)O)[C@@H](O)[C@H]1O [Pseudomonic acid]
fitness
Conditions | first compound 0.625 µg/mL | first compound 1.073 µg/mL | first compound 1.25 µg/mL | first compound 2.145 µg/mL | first compound 2.5 µg/mL | first compound 4.29 µg/mL | first compound 5 µg/mL
S. aureus Newman [6], partner 0.0313 µg/mL | 0.0517 | – | 0.0718 | – | 0.0759 | – | –
S. aureus Newman [6], partner 0.0625 µg/mL | 0.0386 | – | 0.0347 | – | 0.0304 | – | –
S. aureus Newman [6], partner 0.125 µg/mL | 0.0386 | – | 0.0514 | – | 0.0492 | – | –
S. pneumoniae D39V [2], partner 0.03 µg/mL | – | 0.903 | 0.932 | 0.859 | 0.96 | 0.877 | 0.92
S. pneumoniae D39V [2], partner 0.06 µg/mL | – | – | 0.816 | – | 0.829 | 0.81 | 0.816
S. pneumoniae D39V [2], partner 0.12 µg/mL | – | 0.529 | 0.57 | 0.632 | 0.596 | 0.575 | 0.588

Conditions | Bliss interaction score
B. subtilis 168 [3] | -0.0197
S. aureus DSM 20231 | 0.0111
S. aureus Newman [4] | 0.0128
S. pneumoniae D39V [5] | 0.0684

O=C(O)c1cn(C2CC2)c2cc(N3CCNCC3)c(F)cc2c1=O [Ciprofloxacin] + CCC[C@@H]1C[C@@H](C(=O)N[C@@H]([C@H]2O[C@H](SC)[C@H](O)[C@@H](O)[C@H]2O)[C@@H](C)O)N(C)C1 [Lincomycin]
fitness
Conditions | partner 0.1 µg/mL | partner 0.2 µg/mL | partner 0.215 µg/mL | partner 0.4 µg/mL | partner 0.43 µg/mL | partner 0.8 µg/mL | partner 0.86 µg/mL
B. subtilis 168 [1], first compound 0.0098 µg/mL | 0.876 | 0.814 | – | 0.9 | – | – | –
B. subtilis 168 [1], first compound 0.0195 µg/mL | 0.713 | 0.751 | – | 0.763 | – | – | –
S. pneumoniae D39V [2], first compound 0.125 µg/mL | – | 0.564 | 0.801 | 0.323 | 0.722 | 0.0204 | 0.469
S. pneumoniae D39V [2], first compound 0.25 µg/mL | – | – | 0.789 | – | 0.701 | – | 0.517
S. pneumoniae D39V [2], first compound 0.5 µg/mL | – | 0.46 | 0.674 | 0.292 | 0.618 | 0.0616 | 0.318

fitness, one replicate
Conditions | partner 0.2 µg/mL | partner 0.4 µg/mL | partner 0.8 µg/mL | partner 1.6 µg/mL
B. subtilis 168 [1], first compound 0.0098 µg/mL | – | – | 0.943 | 0.926
B. subtilis 168 [1], first compound 0.0195 µg/mL | – | – | 0.745 | 0.767
B. subtilis 168 [1], first compound 0.039 µg/mL | – | – | 0.486 | 0.674
S. pneumoniae D39V [2], first compound 0.25 µg/mL | 0.404 | 0.256 | 0 | –

Conditions | Bliss interaction score
B. subtilis 168 [3] | 0.169
S. aureus DSM 20231 | 0.208
S. aureus Newman [4] | 0.119
S. pneumoniae D39V [5] | 0.0743

Source: the supplement of paper PMC10627819
